The values below come from patent US9200017B2, “Multimodal imaging of fibrin” (The General Hospital Corporation, priority 2009, dated 2015).

The subject of experiment [1] is Thrombus. The experiment can be described thus: MR-PET imaging in a rabbit model of occlusive arterial thrombus. It is filed as in vivo. To be noted: i.v., MR angiogram with gadofosveset. How it is done:
The occlusive thrombus model was similar to the one described above. Briefly, a male New Zealand white rabbit (2.5 kg) was sedated with a mixture of ketamine and xylazine and anaesthetized with isoflurane (1-2% in 70% N2O and 30% O2) and body temperature was kept at 37.5° C. A day old autologous blood clot was injected into the right internal carotid artery (ICA). The femoral vein was cannulated for intravenous delivery of the imaging agents. Simultaneous PET and MR were acquired on a clinical 3T MRI-BrainPET scanner using a home-built receive surface coil and a CP transmit coil. After baseline MR scans were acquired, the compound 21 was administered at a dose of […]. The blood pool MR contrast agent gadofosveset was injected at a dose of 0.1 mmol Gd/kg to acquire an angiographic image.

In experiment [2] the target is T1, Thrombus (Rattus norvegicus, UniProt P02680+P06399+P14480).
T1 construct: thrombin cleaves fibrinopeptides on fibrinogen resulting in an end-to-end polymerization to give the polymer fibrin; A day old autologous blood clot was injected into the right internal carotid artery; from tissue; host or cells: autologous blood clot in the right internal carotid artery of Wistar rats
T1 sequence (P06399 37-550 isoform P06399-2 limits assumed): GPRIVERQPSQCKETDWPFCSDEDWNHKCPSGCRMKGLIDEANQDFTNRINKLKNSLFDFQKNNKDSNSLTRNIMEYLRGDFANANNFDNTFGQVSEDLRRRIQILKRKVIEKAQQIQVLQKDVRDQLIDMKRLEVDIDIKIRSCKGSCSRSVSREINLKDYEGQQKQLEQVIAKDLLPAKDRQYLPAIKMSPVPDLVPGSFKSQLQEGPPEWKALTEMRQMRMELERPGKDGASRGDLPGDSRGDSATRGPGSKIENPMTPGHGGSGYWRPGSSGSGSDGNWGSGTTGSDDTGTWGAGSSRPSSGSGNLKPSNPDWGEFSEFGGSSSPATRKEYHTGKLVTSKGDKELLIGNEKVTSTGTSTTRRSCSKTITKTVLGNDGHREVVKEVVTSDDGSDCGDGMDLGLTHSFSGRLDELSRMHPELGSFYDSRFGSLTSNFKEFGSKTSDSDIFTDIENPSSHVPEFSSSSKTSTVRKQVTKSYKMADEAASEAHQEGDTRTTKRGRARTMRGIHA
T1 sequence (P14480 33-479 limits assumed): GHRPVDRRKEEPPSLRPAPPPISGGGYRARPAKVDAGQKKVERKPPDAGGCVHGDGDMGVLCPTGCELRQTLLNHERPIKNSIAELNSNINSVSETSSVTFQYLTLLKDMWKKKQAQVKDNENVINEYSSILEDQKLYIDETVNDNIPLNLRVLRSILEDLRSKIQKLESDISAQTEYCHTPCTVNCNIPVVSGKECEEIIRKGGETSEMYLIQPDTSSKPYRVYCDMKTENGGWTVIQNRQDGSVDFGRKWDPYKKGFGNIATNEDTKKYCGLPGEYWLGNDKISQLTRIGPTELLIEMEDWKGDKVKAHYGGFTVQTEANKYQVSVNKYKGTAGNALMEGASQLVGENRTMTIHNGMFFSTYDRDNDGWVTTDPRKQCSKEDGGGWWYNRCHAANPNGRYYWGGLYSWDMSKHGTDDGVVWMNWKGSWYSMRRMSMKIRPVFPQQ
T1 sequence (P02680 26-437 isoform P02680-2 limits assumed): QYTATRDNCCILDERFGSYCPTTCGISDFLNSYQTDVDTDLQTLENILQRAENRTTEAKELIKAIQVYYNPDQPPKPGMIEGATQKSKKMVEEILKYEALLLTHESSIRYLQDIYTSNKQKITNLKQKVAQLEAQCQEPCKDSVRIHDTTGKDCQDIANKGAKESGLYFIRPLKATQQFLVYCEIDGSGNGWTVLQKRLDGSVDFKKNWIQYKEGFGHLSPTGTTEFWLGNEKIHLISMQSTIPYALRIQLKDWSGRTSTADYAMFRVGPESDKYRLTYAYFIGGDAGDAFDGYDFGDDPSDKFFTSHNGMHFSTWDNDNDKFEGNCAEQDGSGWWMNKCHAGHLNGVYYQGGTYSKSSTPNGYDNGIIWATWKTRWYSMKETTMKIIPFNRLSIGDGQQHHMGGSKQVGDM
Type of experiment: in vivo. To be noted: ex vivo, 2 h post-injection. How it is done:
All animal studies were approved by the Subcommittee on Research Animal Care at Massachusetts General Hospital. The occlusive thrombus model was described previously (Zhang R L, Chopp M, Zhang Z G, Jiang Q, and Ewing J R., Brain Res. 1997 766(1-2):83-92). Briefly, male Wistar rats (350-400 g, n=8; Charles River Laboratories, Wilmington, Mass.) were anaesthetized with isoflurane (1-2% in 70% N2O and 30% O2) and body temperature was kept at 37.5° C. A day old autologous blood clot was injected into the right internal carotid artery (ICA) at the level of the middle cerebral artery (MCA). The femoral vein was cannulated for intravenous delivery of the contrast agent. […]
The ipsilateral (containing the thrombus) and contralateral ICA and MCA, cerebral hemispheres, blood, urine, intraabdominal organs, rectus femoris muscle and femur bone were collected from all the animals, weighed and radioactivity measured on a gamma counter. The percent of the injected dose per gram of tissue (% ID/g) was calculated by dividing the counts of ^64Cu/g of tissue by the total counts of the injected dose, based on an aliquot of the injected dose, with correction for radioactive decay. Tissues were later homogenized in nitric acid and analyzed for Gd concentration by inductively coupled plasma-mass spectrometry (ICP-MS).

As to Gd3-EP-2104R-Cu [Compound 21], in the experiment with Thrombus [1], the “PET signal at occluded right internal carotid artery” value is listed as “hyperintense PET signal in the right internal carotid (ICA)”. Moreover, on Thrombus [2] (p<0.005), the “Concentration of 64Cu in thrombus relative to contralateral vessel, blood plasma, brain, or muscle” value is listed as “at least 4 fold”. Moreover, on Thrombus [2] (ICP-MS, p<0.0001), the “Gd concentration in thrombus relative to contralateral vessel, blood plasma, brain, or muscle” value is listed as “over 6 fold”.
